Values quoted from earlier work as cited in patent US20240238194A1, “ORODISPERSIBLE EFFERVESCENT TABLET COMPRISING BUDESONIDE FOR USE IN THE TREATMENT OF EOSINOPHILIC ESOPHAGITIS” (Dr. Falk Pharma GmbH, priority 2021, published 2024).

Conditions: in vivo

In the case of budesonide [OVB], the “mucosal medication contact time, measured by scintigraphy” value is listed as “higher”.
